ChEMBL document CHEMBL5665443, “Enzyme Inhibitor Single Concentration assay results for EUbOPEN Chemogenomics Library” (2024)

Legend:
[1] = target: Methyl-CpG-binding domain protein 4 (Homo sapiens) (UniProt O95243); conditions: Hit No;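 note: MBD4 activity read as fluorescence at 594 nm from cleavage and release of a quenched duplex DNA oligonucleotide, with APE1 coupled to incise the strand and raise turnover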
Description: Inhibition of MBD4 by quantifying inhibition of MBD4-mediated cleavage and dissociation of quenched duplex DNA oligonucleotides, measured as fluorescence at 594 nm. To generate a functional strand incision and increase turn-over this assay is coupled to APE1.

[2] = target: T1, Adenine DNA glycosylase (Homo sapiens) (UniProt Q9UIF7);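 note: human MUTYH activity read as 594 nm fluorescence from cleavage and release of a quenched DNA duplex, coupled with APE1 for strand incision, lower signal meaning inhibition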
T1 sequence (whole entry): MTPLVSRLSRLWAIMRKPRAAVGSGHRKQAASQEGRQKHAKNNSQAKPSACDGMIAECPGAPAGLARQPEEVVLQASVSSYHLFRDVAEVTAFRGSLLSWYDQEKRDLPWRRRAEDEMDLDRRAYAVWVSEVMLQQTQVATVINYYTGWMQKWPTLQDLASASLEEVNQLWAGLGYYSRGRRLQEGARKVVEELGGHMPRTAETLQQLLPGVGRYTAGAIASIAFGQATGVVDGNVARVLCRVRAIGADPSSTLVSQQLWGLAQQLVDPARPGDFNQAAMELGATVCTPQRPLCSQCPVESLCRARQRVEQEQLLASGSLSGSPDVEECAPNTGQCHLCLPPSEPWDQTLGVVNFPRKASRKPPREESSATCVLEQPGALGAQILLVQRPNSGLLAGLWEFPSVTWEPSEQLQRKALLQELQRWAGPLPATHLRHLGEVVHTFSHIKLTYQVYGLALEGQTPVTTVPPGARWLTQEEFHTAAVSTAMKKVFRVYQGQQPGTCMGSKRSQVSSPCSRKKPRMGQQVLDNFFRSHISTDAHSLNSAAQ
Description: Inhibition of MUTYH by quantifying inhibition of MUTYH-mediated cleavage and dissociation of quenched duplex DNA oligonucleotides, measured as fluorescence at 594 nm. To generate a functional strand incision and increase turn-over this assay is coupled to APE1.

[3] = target: Endonuclease 8-like 1 (Homo sapiens) (UniProt Q96FI4); conditions: Hit No;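 note: fluorescence at 594 nm from quenched duplex DNA oligonucleotides released by NEIL1 cleavage and strand separation, reported as reduction of this enzyme activity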
Description: Inhibition of NEIL1 by quantifying inhibition of NEIL1-mediated cleavage and dissociation of quenched duplex DNA oligonucleotides, measured as fluorescence at 594 nm.

[4] = target: T2, Endonuclease 8-like 2 (Homo sapiens) (UniProt Q969S2);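 note: fluorescence at 594 nm reports NEIL2 cutting and release of a quenched double-stranded DNA oligo substrate, reduced signal read as inhibition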
T2 sequence (whole entry): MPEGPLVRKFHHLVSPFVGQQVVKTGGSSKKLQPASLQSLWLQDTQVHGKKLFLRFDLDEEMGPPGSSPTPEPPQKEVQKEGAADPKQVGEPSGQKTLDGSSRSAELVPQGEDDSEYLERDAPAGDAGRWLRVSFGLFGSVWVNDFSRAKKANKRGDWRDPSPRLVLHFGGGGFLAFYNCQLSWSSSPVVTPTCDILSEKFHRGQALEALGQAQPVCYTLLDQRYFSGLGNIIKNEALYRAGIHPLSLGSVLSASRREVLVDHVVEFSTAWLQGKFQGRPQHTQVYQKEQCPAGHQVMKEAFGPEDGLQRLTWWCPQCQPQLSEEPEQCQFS
Description: Inhibition of NEIL2 by quantifying inhibition of NEIL2-mediated cleavage and dissociation of quenched duplex DNA oligonucleotides, measured as fluorescence at 594 nm.

[5] = target: T3, Endonuclease III-like protein 1 (Homo sapiens) (UniProt P78549);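 note: enzyme assay tracking NTHL1 cutting and release of a quenched double-stranded DNA oligo substrate, read as fluorescence at 594 nm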
T3 sequence (whole entry): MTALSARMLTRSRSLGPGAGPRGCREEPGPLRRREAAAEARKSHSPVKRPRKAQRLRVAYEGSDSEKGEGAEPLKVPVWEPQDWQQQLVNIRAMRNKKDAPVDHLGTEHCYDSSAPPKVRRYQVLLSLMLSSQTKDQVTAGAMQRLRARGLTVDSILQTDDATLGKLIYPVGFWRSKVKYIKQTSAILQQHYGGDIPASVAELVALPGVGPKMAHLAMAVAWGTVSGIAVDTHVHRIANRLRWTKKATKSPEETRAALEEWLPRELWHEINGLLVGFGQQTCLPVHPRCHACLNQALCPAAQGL
Description: Inhibition of NTHL1 by quantifying inhibition of NTHL1-mediated cleavage and dissociation of quenched duplex DNA oligonucleotides, measured as fluorescence at 594 nm.

[6] = target: N-glycosylase/DNA lyase (Homo sapiens) (UniProt O15527); conditions: Hit No;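 note: OGG1 cleavage of a quenched duplex DNA oligonucleotide, coupled to APE1 for strand incision, read as fluorescence at 594 nm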
Description: Inhibition of OGG1 by quantifying inhibition of OGG1-mediated cleavage and dissociation of quenched duplex DNA oligonucleotides, measured as fluorescence at 594 nm. To generate a functional strand incision and increase turn-over this assay is coupled to APE1.

[7] = target: T4, Single-strand selective monofunctional uracil DNA glycosylase (Homo sapiens) (UniProt Q53HV7); conditions: Hit No;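 note: enzymatic SMUG1 assay coupled with APE1, reading fluorescence at 594 nm released when a quenched double-stranded DNA oligonucleotide substrate is cleaved and separated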
T4 sequence (whole entry): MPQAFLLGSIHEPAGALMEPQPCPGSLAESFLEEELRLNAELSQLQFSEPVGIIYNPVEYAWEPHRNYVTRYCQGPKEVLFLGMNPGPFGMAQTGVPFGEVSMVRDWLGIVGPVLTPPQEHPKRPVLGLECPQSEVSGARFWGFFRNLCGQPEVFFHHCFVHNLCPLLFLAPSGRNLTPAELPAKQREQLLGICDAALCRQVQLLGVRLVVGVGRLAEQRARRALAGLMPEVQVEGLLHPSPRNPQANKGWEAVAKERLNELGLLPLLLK
Description: Inhibition of SMUG1 by quantifying inhibition of SMUG1-mediated cleavage and dissociation of quenched duplex DNA oligonucleotides, measured as fluorescence at 594 nm. To generate a functional strand incision and increase turn-over this assay is coupled to APE1.

[8] = target: G/T mismatch-specific thymine DNA glycosylase (Homo sapiens) (UniProt Q13569); conditions: Hit No;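 note: human TDG cleavage of quenched duplex DNA oligonucleotides coupled to APE1, strand release read as fluorescence at 594 nm, inhibition of TDG activity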
Description: Inhibition of TDG by quantifying inhibition of TDG-mediated cleavage and dissociation of quenched duplex DNA oligonucleotides, measured as fluorescence at 594 nm. To generate a functional strand incision and increase turn-over this assay is coupled to APE1.

[9] = target: Uracil-DNA glycosylase (Homo sapiens) (UniProt P13051); conditions: Hit No;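 note: UNG excision on a quenched double-stranded DNA oligo probe, with APE1 added for strand incision and turnover, read as fluorescence at 594 nm as strands separate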
Description: Inhibition of UNG by quantifying inhibition of UNG-mediated cleavage and dissociation of quenched duplex DNA oligonucleotides, measured as fluorescence at 594 nm. To generate a functional strand incision and increase turn-over this assay is coupled to APE1.

[10] = Compound Concentration 10.0 uM, Hit No
[11] = Compound Concentration 1.0 uM, Hit No
[12] = Compound Concentration 1.0 uM, Hit Yes

Sequence of Endonuclease 8-like 1 (Homo sapiens) (Q96FI4 whole entry): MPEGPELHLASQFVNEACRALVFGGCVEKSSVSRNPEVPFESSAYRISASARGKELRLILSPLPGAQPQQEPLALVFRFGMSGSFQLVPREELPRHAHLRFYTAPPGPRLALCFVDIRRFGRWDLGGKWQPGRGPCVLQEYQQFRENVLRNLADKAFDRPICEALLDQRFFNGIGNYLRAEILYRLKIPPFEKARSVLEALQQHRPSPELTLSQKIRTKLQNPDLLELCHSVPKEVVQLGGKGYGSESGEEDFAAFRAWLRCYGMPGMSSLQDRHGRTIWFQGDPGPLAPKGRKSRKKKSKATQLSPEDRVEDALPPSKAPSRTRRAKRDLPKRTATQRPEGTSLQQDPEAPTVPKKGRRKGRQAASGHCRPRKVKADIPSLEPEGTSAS
Sequence of Uracil-DNA glycosylase (Homo sapiens) (P13051 whole entry): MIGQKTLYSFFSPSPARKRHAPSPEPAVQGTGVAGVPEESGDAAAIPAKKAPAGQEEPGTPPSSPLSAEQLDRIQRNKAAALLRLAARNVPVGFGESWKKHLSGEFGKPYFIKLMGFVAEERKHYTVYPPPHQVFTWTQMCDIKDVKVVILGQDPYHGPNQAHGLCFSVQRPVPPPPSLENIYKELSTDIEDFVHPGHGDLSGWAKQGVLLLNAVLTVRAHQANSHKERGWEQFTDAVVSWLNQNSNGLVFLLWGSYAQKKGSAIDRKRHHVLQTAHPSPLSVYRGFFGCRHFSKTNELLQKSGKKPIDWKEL
Sequence of N-glycosylase/DNA lyase (Homo sapiens) (O15527 whole entry): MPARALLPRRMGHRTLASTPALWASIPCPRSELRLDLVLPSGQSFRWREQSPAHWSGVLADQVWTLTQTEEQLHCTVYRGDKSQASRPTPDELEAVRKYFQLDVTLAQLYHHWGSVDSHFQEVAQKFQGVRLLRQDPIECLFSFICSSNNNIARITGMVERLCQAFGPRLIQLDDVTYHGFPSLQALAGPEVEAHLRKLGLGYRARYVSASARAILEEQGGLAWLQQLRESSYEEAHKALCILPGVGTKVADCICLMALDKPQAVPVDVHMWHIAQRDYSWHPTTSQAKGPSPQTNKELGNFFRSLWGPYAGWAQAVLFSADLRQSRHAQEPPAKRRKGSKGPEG
Sequence of Methyl-CpG-binding domain protein 4 (Homo sapiens) (O95243 whole entry, the tested form may be a part): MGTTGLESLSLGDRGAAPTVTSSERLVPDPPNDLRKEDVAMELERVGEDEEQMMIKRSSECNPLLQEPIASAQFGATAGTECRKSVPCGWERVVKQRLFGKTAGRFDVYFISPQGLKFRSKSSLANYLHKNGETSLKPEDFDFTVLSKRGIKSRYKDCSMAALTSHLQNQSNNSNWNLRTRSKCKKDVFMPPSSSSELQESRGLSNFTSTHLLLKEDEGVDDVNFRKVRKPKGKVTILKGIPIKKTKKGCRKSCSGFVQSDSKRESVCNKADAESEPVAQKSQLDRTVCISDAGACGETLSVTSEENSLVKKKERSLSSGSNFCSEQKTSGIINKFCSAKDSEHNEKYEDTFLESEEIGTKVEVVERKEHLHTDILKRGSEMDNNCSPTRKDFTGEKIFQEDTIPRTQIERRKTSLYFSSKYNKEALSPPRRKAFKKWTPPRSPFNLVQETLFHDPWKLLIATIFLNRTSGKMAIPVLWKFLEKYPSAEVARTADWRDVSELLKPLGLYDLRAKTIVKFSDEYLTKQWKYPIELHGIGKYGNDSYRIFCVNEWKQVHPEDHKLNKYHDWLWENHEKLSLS
Sequence of G/T mismatch-specific thymine DNA glycosylase (Homo sapiens) (Q13569 whole entry): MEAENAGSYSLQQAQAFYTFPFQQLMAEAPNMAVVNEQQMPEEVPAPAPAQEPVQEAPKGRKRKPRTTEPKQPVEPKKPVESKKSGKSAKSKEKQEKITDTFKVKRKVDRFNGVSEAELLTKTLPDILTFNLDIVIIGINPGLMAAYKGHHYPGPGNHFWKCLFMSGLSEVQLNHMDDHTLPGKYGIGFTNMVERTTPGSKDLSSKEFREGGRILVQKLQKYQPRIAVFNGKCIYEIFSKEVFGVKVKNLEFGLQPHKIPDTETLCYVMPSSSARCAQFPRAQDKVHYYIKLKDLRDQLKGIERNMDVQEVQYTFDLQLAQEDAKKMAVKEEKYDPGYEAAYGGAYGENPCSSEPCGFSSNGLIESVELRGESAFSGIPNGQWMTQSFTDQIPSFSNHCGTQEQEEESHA

SMILES	inhibition ([1]; Compound Concentration 10.0 uM) [%]	inhibition [2, 10] [%]	inhibition ([3]; Compound Concentration 10.0 uM) [%]	inhibition [4, 10] [%]	inhibition [5, 10] [%]	inhibition ([6]; Compound Concentration 10.0 uM) [%]	inhibition ([7]; Compound Concentration 10.0 uM) [%]	inhibition ([8]; Compound Concentration 10.0 uM) [%]	inhibition ([9]; Compound Concentration 10.0 uM) [%]	further results
CC(=O)Nc1c(F)cc(C(=O)N[C@H]2CC[C@H](O)CC2)cc1O[C@@H](C)c1ccccc1	61.8	6.45	2.28	-0.489	5.29	12.6	12.7	69.8	5.95	
CC[C@@H](Nc1c(C#N)c(-c2ccc(-c3cccc(C)c3F)cc2)nc2cnccc12)C(=O)O	42.6	24.5	-1.4	3.25	2.05	31.6	12.3	49.5	2.5	
CN1CCN(c2ccnc(NCCc3ccccc3)n2)CC1	69	16.7	2.13	14.1	-9.83	9.82	8.97	50.4	6.53	
CCOC(=O)Nc1ccc2c(c1)N(C(=O)CN(CC)CC)c1ccccc1CC2	65.5	-4.04	-8.02	-9.67	4.63	-1.34	15.8	97.9	-1.75	
COc1cc(-c2cn[nH]c2)ccc1C(=O)Nc1ccc2c(c1)CCNCC2	13.6	-0.48	-5.41	3.2	-8.28	2.14	20.2	37.4	2.84	
C[C@@]1(Cc2ccc(C#N)cc2)C(=O)N(c2cc(Cl)cc(Cl)c2)c2ncc(C(=O)NC3(c4nc(C5CCC5)no4)CC3)n21	57.2	-3.98	-6.2	-9.93	-5.89	13.1	14.7	98.8	3.21	
Cc1cc(SCc2sc(-c3ccc(C(F)(F)F)cc3)nc2C)ccc1OCC(=O)O	60	14.6	-2.11	1.55	17.8	62.7	18.5	98.5	-0.945	
N#CC1(c2ccccn2)CCN(Cc2cc(C(=O)N3CCCC3)c(=O)n3ccccc23)CC1	68.6	-9.61	-0.745	4.87	2	13.7	16.3	39.8	2.35	
Cc1cccc(-c2[nH]c(CNc3ccccc3F)nc2-c2ccc3ncnn3c2)n1										inhibition ([1]; Compound Concentration 1.0 uM): 12.7%; inhibition [2, 11]: 6.74%; inhibition ([3]; Compound Concentration 1.0 uM): -2.11%; inhibition [4, 11]: 6.16%; inhibition [5, 11]: -6.89%; inhibition ([6]; Compound Concentration 1.0 uM): 4.54%; inhibition ([7]; Compound Concentration 1.0 uM): -5.72%; inhibition ([8]; Compound Concentration 1.0 uM): 35.6%; inhibition ([9]; Compound Concentration 1.0 uM): -5.91%
Cc1cc(OC2CCS(=O)(=O)CC2)cc(C)c1-c1cccc(COc2ccc(C(=O)O)c(F)c2)c1	67.4	8.53	-1.96	-1.51	-5.23	31.5	23.6	100	6.33	
CO[C@H]1/C=C/O[C@@]2(C)Oc3c(C)c(O)c4c(O)c(c(/C=N/N5CCN(C)CC5)c(O)c4c3C2=O)NC(=O)/C(C)=C\C=C\[C@H](C)[C@H](O)[C@@H](C)[C@@H](O)[C@@H](C)[C@H](OC(C)=O)[C@@H]1C	74.6	34.5	-4.08	-0.744		23.7	26.1	64	20	inhibition ([5]; Compound Concentration 10.0 uM, Hit Yes): 27.6%
CN(C)c1ncc2cc(-c3ccc(-c4ncccc4F)cc3Cl)c(=O)n(C[C@H]3OC[C@H](N)CO3)c2n1	-0.894	13.7	2.65	1.58	-1.31	-0.214	26.9	41.3	6.12	
O=C(O)c1ccc(C(=O)N[C@@H](c2ccc(OC(F)(F)F)c(F)c2)c2ncccc2F)nc1	11.1	7.76	5.2	13.9	22.9	-2.45	-6.46	8.79	-9.18	
CNCc1ccccc1-c1csc([C@H](C)Nc2nc(C)nc3cc(OC)c(OC)cc23)c1										inhibition ([1]; Compound Concentration 1.0 uM): 58.7%; inhibition [2, 12]: 36.2%; inhibition ([3]; Compound Concentration 1.0 uM): -4.23%; inhibition [4, 12]: 26.3%; inhibition [5, 11]: 2.66%; inhibition ([6]; Compound Concentration 1.0 uM): 6.33%; inhibition ([7]; Compound Concentration 1.0 uM): 19.4%; inhibition ([8]; Compound Concentration 1.0 uM): 97.8%; inhibition ([9]; Compound Concentration 1.0 uM): 6.69%
Nc1ncnc2c1ncn2[C@@H]1O[C@H](CO)[C@@H](O)[C@H]1O	-3.22	17.8	8.25	2.76	2.66	-6.13	-2.21	6.82	-7.49	
COc1ccc2c(c1)O[C@H](c1ccc(OC)c(OC)c1)C[C@@H]2NC(=O)C1(c2ccc3c(c2)OC(F)(F)O3)CC1	67.5	5.63	-6.95	-3.29	3.97	6.08	9.42	47.2	3.82	
CC[C@H](Nc1c(C#N)c(-c2ccc(-c3cccc(C)c3F)cc2)nc2cnccc12)C(=O)O	59.4	34.2	1.86	-0.764	5.22	43.2	12	51.7	6.04	
CCc1ccccc1C(=O)Nc1n[nH]c2c(C)c(F)c(C3C(C#N)=C(C)N(C)C(C)=C3C#N)cc12	44.9	2.35	-6.65	5.63	-1.95	11.1	29.9	43.7	9.1	inhibition ([1]; Compound Concentration 1.0 uM): 55%; inhibition [2, 11]: 6.2%; inhibition ([3]; Compound Concentration 1.0 uM): 0.0055%; inhibition [5, 11]: 13.3%; inhibition ([7]; Compound Concentration 1.0 uM): 13.1%; inhibition ([8]; Compound Concentration 1.0 uM): 36.9%; inhibition ([9]; Compound Concentration 1.0 uM): 1.06%
C[C@@H]1CCc2ncc(F)cc2[C@H]2CCCN2c2ccn3ncc(c3n2)C(=O)N1	0.277	17.4	2.25	-1.65	-1.31	2.29	26.7	40.3	4.92	
CC[C@H](C)C(=O)O[C@H]1C[C@@H](C)C=C2C=C[C@H](C)[C@H](CC[C@@H]3C[C@@H](O)CC(=O)O3)[C@H]21	71.5	12.1	-4.68	4.61	5.94	11.4	15.8	49.6	8.04	
